Where two headings read alike, the source gives them in different places.
Tests used:
[1] = rcm bond, toluene
[2] = biological target: Recombinant Human Siglec-3/CD33 protein (His-CD33) (Homo sapiens (Human), UniProt P20138); test: Differential scanning fluorimetry (DSF) thermal shift assay; type: binding
[3] = biological target: Recombinant human CD33 protein (Homo sapiens (Human), UniProt P20138); test: CD33 competitive binding assay for HTS drug screen (fluorescent multivalent sialic acid probe)
Sequence of Recombinant human CD33 protein (P20138 18-259): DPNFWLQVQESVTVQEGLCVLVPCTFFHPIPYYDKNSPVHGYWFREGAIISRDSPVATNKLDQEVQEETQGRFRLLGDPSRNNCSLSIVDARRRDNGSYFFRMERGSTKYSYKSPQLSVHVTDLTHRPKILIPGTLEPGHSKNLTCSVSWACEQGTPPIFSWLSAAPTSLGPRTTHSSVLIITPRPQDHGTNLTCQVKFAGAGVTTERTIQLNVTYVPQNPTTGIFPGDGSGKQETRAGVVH
Method in brief: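 Inhibition was read as reduced retention of a fluorescent multivalent sialic acid complex (final 5 μM neutravidin, 15 μM A-375, 5 μM biotin-4-FITC) on plate-immobilized human CD33. Compound was added first, the probe followed for 30 min at room temperature in PBS with 0.2% Tween-20 and 0.5% BSA, and FITC was measured after a wash.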

[4] = difference in thermal melt of CD33 protein (0.5 μM) with 50 μM compound
[5] = thermal melt shift of 0.5 μM CD33 protein with 50 μM compound

Sequence of Recombinant Human Siglec-3/CD33 protein (His-CD33) (P20138 18-259): as above

SMILES | EC50 [3] [nM] | DSF (dTmD) [2, 5] | also measured
COC(=O)[C@]12CC=Cc3cccc(c3)[C@@H](NC(=O)C3CCCOC3)CCCCOc3c(C)cc(cc3C)C(=O)NC[C@@H](OC(C)=O)[C@@H](OC(C)=O)[C@H](O1)[C@H](NC(=O)OC(C)(C)C)[C@@H](OC(C)=O)C2 (stereo partly shown) | – | – | ring closure, isolated yield ([1]; from C=CC[C@]1(C(=O)OC)C[C@H](OC(C)=O)[C@@H](NC(=O)OC(C)(C)C)[C@H]([C@H](OC(C)=O)[C@@H](CNC(=O)c2cc(C)c(OCCCC[C@H](NC(=O)C3CCCOC3)c3cccc(C=C)c3)c(C)c2)OC(C)=O)O1, 24-membered ring, Hoveyda-Grubbs II/quinone, 1.02 mM, 80.0 °C, 1.0 h): 29%
COC(=O)[C@]12CC=CCOC[C@@H](NC(=O)C3CCCOC3)COCCOc3c(C)cc(cc3C)C(=O)NC[C@@H](OC(C)=O)[C@@H](OC(C)=O)[C@H](O1)[C@H](NC(=O)OC(C)(C)C)[C@@H](OC(C)=O)C2 (stereo partly shown) | – | – | ring closure, isolated yield ([1]; from C=CCOC[C@H](COCCOc1c(C)cc(C(=O)NC[C@@H](OC(C)=O)[C@@H](OC(C)=O)[C@@H]2O[C@@](CC=C)(C(=O)OC)C[C@H](OC(C)=O)[C@H]2NC(=O)OC(C)(C)C)cc1C)NC(=O)C1CCCOC1, 24-membered ring, Hoveyda-Grubbs II/quinone, 1.05 mM, 80.0 °C, 3.0 h): 60%
CC(=O)O[C@H]1[C@@H]2O[C@](C(=O)OCc3ccccc3)(CC=CCOC[C@@H](C)C(=O)NCCCOc3c(C)cc(cc3C)C(=O)NC[C@H]1OC(C)=O)C[C@H](OC(C)=O)[C@H]2NC(=O)OC(C)(C)C | – | – | ring closure, isolated yield ([1]; from C=CCOC[C@@H](C)C(=O)NCCCOc1c(C)cc(C(=O)NC[C@@H](OC(C)=O)[C@@H](OC(C)=O)[C@@H]2O[C@@](CC=C)(C(=O)OCc3ccccc3)C[C@H](OC(C)=O)[C@H]2NC(=O)OC(C)(C)C)cc1C, 25-membered ring, Hoveyda-Grubbs II (10 mol%)/1,4-benzoquinone, 1.52 mM, 80.0 °C, 1.0 h): 47%
COC(=O)[C@]12CC=CCOC[C@H]3C[C@H](CN3C(=O)C3CCCOC3)OCCOc3c(C)cc(cc3C)C(=O)NC[C@@H](OC(C)=O)[C@@H](OC(C)=O)[C@H](O1)[C@H](NC(=O)OC(C)(C)C)[C@@H](OC(C)=O)C2 (stereo partly shown) | – | – | ring closure, isolated yield ([1]; from C=CCOC[C@H]1C[C@@H](OCCOc2c(C)cc(C(=O)NC[C@@H](OC(C)=O)[C@@H](OC(C)=O)[C@@H]3O[C@@](CC=C)(C(=O)OC)C[C@H](OC(C)=O)[C@H]3NC(=O)OC(C)(C)C)cc2C)CN1C(=O)C1CCCOC1, 25-membered ring, Hoveyda-Grubbs II/quinone, 1.03 mM, 90.0 °C, 24.0 h): 64%
CC(=O)O[C@H]1[C@@H]2O[C@](C(=O)OCc3ccccc3)(CC=CCCCCC(=O)NCCCOc3c(C)cc(cc3C)C(=O)NC[C@H]1OC(C)=O)C[C@H](OC(C)=O)[C@H]2NC(=O)OC(C)(C)C | – | – | ring closure, isolated yield ([1]; from C=CCCCCC(=O)NCCCOc1c(C)cc(C(=O)NC[C@@H](OC(C)=O)[C@@H](OC(C)=O)[C@@H]2O[C@@](CC=C)(C(=O)OCc3ccccc3)C[C@H](OC(C)=O)[C@H]2NC(=O)OC(C)(C)C)cc1C, 25-membered ring, Hoveyda-Grubbs II, 2.15 mM, 90.0 °C, 0.58 h): 41%
COC(=O)[C@]12CC=CCCC[C@@H](NC(=O)C3CCCOC3)c3cccc(c3)COc3c(C)cc(cc3C)C(=O)NC[C@@H](OC(C)=O)[C@@H](OC(C)=O)[C@H](O1)[C@H](NC(=O)OC(C)(C)C)[C@@H](OC(C)=O)C2 (stereo partly shown) | – | – | ring closure, isolated yield ([1]; from C=CCCC[C@@H](NC(=O)C1CCCOC1)c1cccc(COc2c(C)cc(C(=O)NC[C@@H](OC(C)=O)[C@@H](OC(C)=O)[C@@H]3O[C@@](CC=C)(C(=O)OC)C[C@H](OC(C)=O)[C@H]3NC(=O)OC(C)(C)C)cc2C)c1, 24-membered ring, Hoveyda-Grubbs II/quinone, 1.03 mM, 90.0 °C, 24.0 h): 71%
COC(=O)[C@]12CC=CCOC[C@@H](NC(=O)C3CCCOC3)COCCCOc3c(C)cc(cc3C)C(=O)NC[C@@H](OC(C)=O)[C@@H](OC(C)=O)[C@H](O1)[C@H](NC(=O)OC(C)(C)C)[C@@H](OC(C)=O)C2 (stereo partly shown) | – | – | ring closure, isolated yield ([1]; from C=CCOC[C@H](COCCCOc1c(C)cc(C(=O)NC[C@@H](OC(C)=O)[C@@H](OC(C)=O)[C@@H]2O[C@@](CC=C)(C(=O)OC)C[C@H](OC(C)=O)[C@H]2NC(=O)OC(C)(C)C)cc1C)NC(=O)C1CCCOC1, 25-membered ring, Hoveyda-Grubbs II/quinone, 1.04 mM, 90.0 °C, 24.0 h): 76%
Cc1cc(C(=O)NC[C@@H](O)[C@@H](O)[C@@H]2O[C@@](C/C=C/c3cccc(CNC(=O)C4CCCOC4)c3)(C(=O)O)C[C@H](O)[C@H]2NC(=O)Cn2cc(C3CCCCC3)nn2)cc(C)c1O (stereo partly shown) [A-260] | 7940 | – | DSF (dTmD) [2, 4]: 4.2 °C
COC(=O)[C@]12CC=CCOC[C@@H](NC(=O)OC(C)(C)C)COCCCOc3c(C)cc(cc3C)C(=O)NC[C@@H](OC(C)=O)[C@@H](OC(C)=O)[C@H](O1)[C@H](NC(C)=O)[C@@H](OC(C)=O)C2 | – | – | ring closure, isolated yield ([1]; from C=CCOC[C@H](COCCCOc1c(C)cc(C(=O)NC[C@@H](OC(C)=O)[C@@H](OC(C)=O)[C@@H]2O[C@@](CC=C)(C(=O)OC)C[C@H](OC(C)=O)[C@H]2NC(C)=O)cc1C)NC(=O)OC(C)(C)C, 25-membered ring, Hoveyda-Grubbs II/quinone, 1.12 mM, 100.0 °C, 3.0 h): 84%
Cc1cc(C(=O)NC[C@@H](O)[C@@H](O)[C@@H]2O[C@@](C/C=C/c3cccc(CNC(=O)C4CCCOC4)c3)(C(=O)O)C[C@H](O)[C@H]2NC(=O)Cn2cc(C3CCCCC3)nn2)cc(C)c1O (stereo partly shown) [A-268] | 1320 | – | DSF (dTmD) [2, 4]: 6.2 °C
COC(=O)[C@]12CC=Cc3cccc(c3)[C@@H](NC(=O)C3CCCOC3)CCCCc3cc(cc(Cl)c3OC(C)=O)C(=O)NC[C@@H](OC(C)=O)[C@@H](OC(C)=O)[C@H](O1)[C@H](NC(=O)OC(C)(C)C)[C@@H](OC(C)=O)C2 (stereo partly shown) | – | – | ring closure, isolated yield ([1]; from C=CC[C@]1(C(=O)OC)C[C@H](OC(C)=O)[C@@H](NC(=O)OC(C)(C)C)[C@H]([C@H](OC(C)=O)[C@@H](CNC(=O)c2cc(Cl)c(OC(C)=O)c(CCCC[C@H](NC(=O)C3CCCOC3)c3cccc(C=C)c3)c2)OC(C)=O)O1, 22-membered ring, Hoveyda-Grubbs II/quinone, 1.3 mM, 88.0 °C, 0.5 h): 57%; ring closure, isolated yield ([1]; from C=CC[C@]1(C(=O)OC)C[C@H](OC(C)=O)[C@@H](NC(=O)OC(C)(C)C)[C@H]([C@H](OC(C)=O)[C@@H](CNC(=O)c2cc(Cl)c(OC(C)=O)c(CCCC[C@H](NC(=O)C3CCCOC3)c3cccc(C=C)c3)c2)OC(C)=O)O1, Hoveyda-Grubbs II/quinone, 1.3 mM, 88.0 °C, 0.5 h): 16%

Continued, in another order:

EC50 [3] [nM] | DSF (dTmD) [2, 5] | SMILES | also measured
5240 | – | CC(=O)N[C@H]1[C@H]2O[C@](C(=O)O)(C/C=C/c3cccc(c3)[C@@H](NC(=O)[C@@H]3CCCOC3)CCCCOc3c(C)cc(cc3C)C(=O)NC[C@@H](O)[C@H]2O)C[C@@H]1O [A-349] | DSF (dTmD) [2, 4]: 5.5 °C
217 | 7.7 | CC(=O)N[C@H]1[C@H]([C@H](O)[C@H](O)CNC(=O)c2cc(-c3csc(C)n3)on2)O[C@@](CCN2CCOC[C@@]23CCN(C(=O)OC(C)(C)C)C3)(C(=O)O)C[C@@H]1O [A-179] | –
74 | 10.9 | CC(=O)N[C@H]1[C@H]([C@H](O)[C@H](O)CNC(=O)c2ccc(C)c(C)c2)O[C@@](CCN2CCOC[C@@]23CCN(C(=O)OC(C)(C)C)C3)(C(=O)O)C[C@@H]1O [A-180] | –
64 | 10.4 | CC(=O)N[C@H]1[C@H]([C@H](O)[C@H](O)CNC(=O)c2cc(C)c(OCCN)c(C)c2)O[C@@](CCN2CCCC[C@@]23CCN(C(=O)OC(C)(C)C)C3)(C(=O)O)C[C@@H]1O [A-027] | –
342 | 7.3 | CC(=O)N[C@H]1[C@H]([C@H](O)[C@H](O)CNC(=O)c2cc(C)c(O)c(C)c2)O[C@@](CCN2CCOC[C@@]23CCN(C(=O)c2ccc(C)cc2)C3)(C(=O)O)C[C@@H]1O [A-099] | –
219 | 9.6 | CC(=O)N[C@H]1[C@H]([C@H](O)[C@H](O)CNC(=O)c2ccc3c(c2)N(C)C(=O)CO3)O[C@@](CCN2CCOC[C@@]23CCN(C(=O)OC(C)(C)C)C3)(C(=O)O)C[C@@H]1O [A-150] | –
4700 | – | Cc1cc(C(=O)NC[C@@H](O)[C@@H](O)[C@@H]2O[C@@](C/C=C/c3cccc(CNC(=O)CC4CCOCC4)c3)(C(=O)O)C[C@H](O)[C@H]2NC(=O)Cn2cc(C3CCCCC3)nn2)cc(C)c1O [A-274] | DSF (dTmD) [2, 4]: 5.7 °C
9640 | – | Cc1cc(C(=O)NC[C@@H](O)[C@@H](O)[C@@H]2O[C@@](C/C=C/c3cccc(CNC(=O)C4C5OCCC[C@H]54)c3)(C(=O)O)C[C@H](O)[C@H]2NC(=O)Cn2cc(C3CCCCC3)nn2)cc(C)c1O (stereo partly shown) [A-272] | DSF (dTmD) [2, 4]: 4.9 °C
159 | 8.1 | CC(=O)N[C@H]1[C@H]([C@H](O)[C@H](O)CNC(=O)c2cc(C)c(O)c(C)c2)O[C@@](CCN2CCCC[C@]23CN(C(=O)OC(C)(C)C)C[C@@H]3CO)(C(=O)O)C[C@@H]1O [A-028] | –
147 | 9.2 | CC(=O)N[C@H]1[C@H]([C@H](O)[C@H](O)CNC(=O)c2cc(C)c(O)c(C)c2)O[C@@](CCN2CCOC[C@@]23CCN(C(=O)Nc2ccc(C)cc2)C3)(C(=O)O)C[C@@H]1O [A-053] | –
21400 | – | Cc1cc2cc(C)c1OCCCNC(=O)CCCCCC[C@]1(C(=O)O)C[C@H](O)[C@@H](NC(=O)Cn3cc(C4CCCCC4)nn3)[C@@H](O1)[C@H](O)[C@H](O)CNC2=O [A-345] | DSF (dTmD) [2, 4]: 3.2 °C
739 | 6.1 | CC(=O)N[C@H]1[C@H]([C@H](O)[C@H](O)CNC(=O)c2cc(C)c(O)c(C)c2)O[C@@](CCN2CCOC[C@@]23CCN(C(=O)N2CCC(F)(F)CC2)C3)(C(=O)O)C[C@@H]1O [A-065] | –
1520 | – | Cc1cc(C(=O)NC[C@@H](O)[C@@H](O)[C@@H]2O[C@@](C/C=C/c3cccc(CNC(=O)C4CCC(NS(C)(=O)=O)CC4)c3)(C(=O)O)C[C@H](O)[C@H]2NC(=O)Cn2cc(C3CCCCC3)nn2)cc(C)c1O (stereo partly shown) [A-281] | DSF (dTmD) [2, 4]: 6.9 °C
